# According to BindingDB's records for doi:10.1016/s0960-894x(02)00084-7 (The University of Tokyo, 2002):
# How the values were obtained:
# [1] = Inhibitory activity (RA1) against Prostaglandin G/H synthase 1 was calculated relative to aspirin
# [2] = Inhibitory activity (RA2) against Prostaglandin G/H synthase 2 was calculated relative to aspirin
SMILES,relative activity vs aspirin [1],relative activity vs aspirin [2]
"Cc1cc(C)c(C)c(N2C(=O)c3ccccc3C2=O)c1C [2-(2,3,5,6-Tetramethyl-phenyl)-isoindole-1,3-dione]",0.2,0.67
"O=C1NCCCC1N1C(=O)c2ccccc2C1=O (centres undefined) [2-(2-Oxo-piperidin-3-yl)-isoindole-1,3-dione]",0.85,1.21
"C[C@@]1(N2C(=O)c3ccc(N)cc3C2=O)CCC(=O)NC1=O [5-Amino-2-((R)-3-methyl-2,6-dioxo-piperidin-3-yl)-isoindole-1,3-dione]",0.12,
"Cc1cc(C)cc(N2C(=O)c3ccccc3C2=O)c1 [2-(3,5-Dimethyl-phenyl)-isoindole-1,3-dione]",7.4,13.2
"COc1cc(C)nc(-n2c(O)cc3ccccc3c2=O)n1 [2-(4-Methoxy-6-methyl-pyrimidin-2-yl)-4H-isoquinoline-1,3-dione]",21.7,10
"C[C@@]1(N2C(=O)c3ccccc3C2=O)CCC(=O)NC1=O [2-((R)-3-Methyl-2,6-dioxo-piperidin-3-yl)-isoindole-1,3-dione]",0.29,0.73
"O=C1CCN(N2C(=O)c3ccccc3C2=O)C(=O)N1 [2-(2,4-Dioxo-tetrahydro-pyrimidin-1-yl)-isoindole-1,3-dione]",0.6,0.9
"Cc1cc(C)nc(-n2c(O)cc3ccccc3c2=O)c1 [2-(4,6-Dimethyl-pyridin-2-yl)-4H-isoquinoline-1,3-dione]",12.5,6.67
"Cc1cc(C)c(C)c(N2C(=O)c3ccccc3C2=O)c1 [2-(2,3,5-Trimethyl-phenyl)-isoindole-1,3-dione]",0.33,1.18
"O=C1c2ccccc2C(=O)N1c1c[nH]c(=O)[nH]c1=O [2-(2,4-Dioxo-1,2,3,4-tetrahydro-pyrimidin-5-yl)-isoindole-1,3-dione]",0.44,3.81
"C[C@@]1(N2C(=O)c3ccc([N+](=O)[O-])cc3C2=O)CCC(=O)NC1=O [2-((R)-3-Methyl-2,6-dioxo-piperidin-3-yl)-5-nitro-isoindole-1,3-dione]",0.54,1.51
"Cc1cc(C)nc(-n2c(O)cc3ccccc3c2=O)n1 [2-(4,6-Dimethyl-pyrimidin-2-yl)-4H-isoquinoline-1,3-dione]",3.85,8.33
O=C1CCC(N2C(=O)c3ccccc3C2=O)C(=O)N1 (racemic) [(+/-)-thalidomide],0.37,0.5
"C[C@@]1(N2C(=O)c3cccc([N+](=O)[O-])c3C2=O)CCC(=O)NC1=O [2-((R)-3-Methyl-2,6-dioxo-piperidin-3-yl)-4-nitro-isoindole-1,3-dione]",0.4,0.1
"COc1cc(OC)nc(-n2c(O)cc3ccccc3c2=O)n1 [2-(4,6-Dimethoxy-pyrimidin-2-yl)-4H-isoquinoline-1,3-dione]",10.2,3.57
"O=C1c2ccccc2C(=O)N1CCn1ccc(=O)[nH]c1=O [2-[2-(2,4-Dioxo-3,4-dihydro-2H-pyrimidin-1-yl)-ethyl]-isoindole-1,3-dione]",1.23,0.65
"C[C@@]1(N2C(=O)c3cccc(N)c3C2=O)CCC(=O)NC1=O [4-Amino-2-((R)-3-methyl-2,6-dioxo-piperidin-3-yl)-isoindole-1,3-dione]",0.17,
"Cc1cc(C)cc(-n2c(O)cc3ccccc3c2=O)c1 [2-(3,5-Dimethyl-phenyl)-4H-isoquinoline-1,3-dione]",95.2,38.5
